In the NIST ThermoML archive (doi:10.1016/j.fluid.2015.10.026):

Details: Brillouin light scattering

CCOC(C)(C)C [2-ethoxy-2-methylpropane]
Details | speed of sound [m/s]
433.15 K, 920 kPa, Liquid | 454.82
433.15 K, 2500 kPa, Liquid | 483.99
433.15 K, 4000 kPa, Liquid | 513.28
433.15 K, 5500 kPa, Liquid | 541.29
433.15 K, 7000 kPa, Liquid | 568
433.15 K, 8500 kPa, Liquid | 593.43
433.15 K, 10000 kPa, Liquid | 617.57
443.15 K, 1150 kPa, Liquid | 409.25
443.15 K, 2500 kPa, Liquid | 440.1
443.15 K, 4000 kPa, Liquid | 471.64
443.15 K, 5500 kPa, Liquid | 501.8
443.15 K, 7000 kPa, Liquid | 530.58
443.15 K, 8500 kPa, Liquid | 557.97
443.15 K, 10000 kPa, Liquid | 583.97
453.15 K, 1420 kPa, Gas | 157.35
453.15 K, 1420 kPa, Liquid | 361.97
453.15 K, 2500 kPa, Liquid | 395.94
453.15 K, 4000 kPa, Liquid | 429.85
453.15 K, 5500 kPa, Liquid | 462.29
453.15 K, 7000 kPa, Liquid | 493.25
453.15 K, 8500 kPa, Liquid | 522.72
453.15 K, 10000 kPa, Liquid | 550.71
463.15 K, 1750 kPa, Gas | 149.62
463.15 K, 1750 kPa, Liquid | 312.51
463.15 K, 2500 kPa, Liquid | 351.51
463.15 K, 4000 kPa, Liquid | 387.92
463.15 K, 5500 kPa, Liquid | 422.75
463.15 K, 7000 kPa, Liquid | 456
463.15 K, 10000 kPa, Liquid | 517.77
473.15 K, 2130 kPa, Gas | 140.63
473.15 K, 2130 kPa, Liquid | 260.24
473.15 K, 4000 kPa, Liquid | 345.84
473.15 K, 5500 kPa, Liquid | 383.18
473.15 K, 7000 kPa, Liquid | 418.85
473.15 K, 8500 kPa, Liquid | 452.84
473.15 K, 10000 kPa, Liquid | 485.16
478.15 K, 2340 kPa, Gas | 135.58
483.15 K, 2570 kPa, Gas | 130.09
483.15 K, 2570 kPa, Liquid | 204.36
483.15 K, 4000 kPa, Liquid | 303.61
483.15 K, 5500 kPa, Liquid | 343.59
488.15 K, 2820 kPa, Gas | 123.95
488.15 K, 2820 kPa, Liquid | 174.7
493.15 K, 3090 kPa, Gas | 116.68
493.15 K, 3090 kPa, Liquid | 143.64
493.15 K, 4000 kPa, Liquid | 261.23
493.15 K, 5500 kPa, Liquid | 303.97
511.02 K, 5000 kPa, Fluid (supercritical or subcritical phases) | 203.94
511.07 K, 6000 kPa, Fluid (supercritical or subcritical phases) | 251.63
511.12 K, 7000 kPa, Fluid (supercritical or subcritical phases) | 292.44
511.26 K, 4000 kPa, Fluid (supercritical or subcritical phases) | 109.41
520.05 K, 4000 kPa, Fluid (supercritical or subcritical phases) | 104.01
521 K, 5000 kPa, Fluid (supercritical or subcritical phases) | 155.15
521.16 K, 6000 kPa, Fluid (supercritical or subcritical phases) | 217.02
521.29 K, 7000 kPa, Fluid (supercritical or subcritical phases) | 264.62
529.5 K, 4000 kPa, Fluid (supercritical or subcritical phases) | 118.19
530.2 K, 5000 kPa, Fluid (supercritical or subcritical phases) | 132.08
530.73 K, 6000 kPa, Fluid (supercritical or subcritical phases) | 183.76
530.99 K, 7000 kPa, Fluid (supercritical or subcritical phases) | 234.87
540.45 K, 4000 kPa, Fluid (supercritical or subcritical phases) | 134.27
541.14 K, 5000 kPa, Fluid (supercritical or subcritical phases) | 128.78
541.48 K, 6000 kPa, Fluid (supercritical or subcritical phases) | 158.8
541.85 K, 7000 kPa, Fluid (supercritical or subcritical phases) | 208.25
550 K, 5000 kPa, Fluid (supercritical or subcritical phases) | 134.46
550.06 K, 4000 kPa, Fluid (supercritical or subcritical phases) | 147.6
550.44 K, 6000 kPa, Fluid (supercritical or subcritical phases) | 144.68
550.58 K, 7000 kPa, Fluid (supercritical or subcritical phases) | 188.75
561.04 K, 4000 kPa, Fluid (supercritical or subcritical phases) | 161.59
561.29 K, 5000 kPa, Fluid (supercritical or subcritical phases) | 145.73
561.65 K, 6000 kPa, Fluid (supercritical or subcritical phases) | 145.52
561.96 K, 7000 kPa, Fluid (supercritical or subcritical phases) | 176.1
571.2 K, 6000 kPa, Fluid (supercritical or subcritical phases) | 152.92
571.28 K, 7000 kPa, Fluid (supercritical or subcritical phases) | 169.79
571.33 K, 5000 kPa, Fluid (supercritical or subcritical phases) | 158.34
571.72 K, 4000 kPa, Fluid (supercritical or subcritical phases) | 172.96
579.57 K, 7000 kPa, Fluid (supercritical or subcritical phases) | 169.78
579.66 K, 6000 kPa, Fluid (supercritical or subcritical phases) | 163.68
579.91 K, 5000 kPa, Fluid (supercritical or subcritical phases) | 170.18
580.22 K, 4000 kPa, Fluid (supercritical or subcritical phases) | 182.55
590.12 K, 4000 kPa, Fluid (supercritical or subcritical phases) | 194.12
590.27 K, 7000 kPa, Fluid (supercritical or subcritical phases) | 175.32
590.38 K, 5000 kPa, Fluid (supercritical or subcritical phases) | 185.11
590.39 K, 6000 kPa, Fluid (supercritical or subcritical phases) | 178.89
601.53 K, 7000 kPa, Fluid (supercritical or subcritical phases) | 188.12
601.7 K, 6000 kPa, Fluid (supercritical or subcritical phases) | 193.21
602.16 K, 5000 kPa, Fluid (supercritical or subcritical phases) | 199.29
602.86 K, 4000 kPa, Fluid (supercritical or subcritical phases) | 207.43
611.06 K, 7000 kPa, Fluid (supercritical or subcritical phases) | 202.27
611.36 K, 6000 kPa, Fluid (supercritical or subcritical phases) | 206.2
611.87 K, 5000 kPa, Fluid (supercritical or subcritical phases) | 211.58
612.81 K, 4000 kPa, Fluid (supercritical or subcritical phases) | 217.85
622.53 K, 7000 kPa, Fluid (supercritical or subcritical phases) | 213.01
622.84 K, 6000 kPa, Fluid (supercritical or subcritical phases) | 217.4
623.38 K, 5000 kPa, Fluid (supercritical or subcritical phases) | 222.38
623.94 K, 4000 kPa, Fluid (supercritical or subcritical phases) | 226.9
631.83 K, 7000 kPa, Fluid (supercritical or subcritical phases) | 218.09
632.32 K, 6000 kPa, Fluid (supercritical or subcritical phases) | 223.19
633.27 K, 5000 kPa, Fluid (supercritical or subcritical phases) | 228.01
634.19 K, 4000 kPa, Fluid (supercritical or subcritical phases) | 232.56
643.79 K, 7000 kPa, Fluid (supercritical or subcritical phases) | 224.46
643.86 K, 6000 kPa, Fluid (supercritical or subcritical phases) | 228.16
644.48 K, 5000 kPa, Fluid (supercritical or subcritical phases) | 232.66
645.27 K, 4000 kPa, Fluid (supercritical or subcritical phases) | 236.85
653.83 K, 6000 kPa, Fluid (supercritical or subcritical phases) | 231.78
653.89 K, 7000 kPa, Fluid (supercritical or subcritical phases) | 228.08
654.31 K, 5000 kPa, Fluid (supercritical or subcritical phases) | 235.93
654.75 K, 4000 kPa, Fluid (supercritical or subcritical phases) | 239.86
665 K, 6000 kPa, Fluid (supercritical or subcritical phases) | 234.24
665.08 K, 4000 kPa, Fluid (supercritical or subcritical phases) | 242.03
665.1 K, 5000 kPa, Fluid (supercritical or subcritical phases) | 237.76
665.1 K, 7000 kPa, Fluid (supercritical or subcritical phases) | 230.39
